Results: patent publication EP0804408B1, “NOVEL 4-SUBSTITUTED 2,6-DI-TERT-BUTYLPHENOL COMPOUNDS, PHARMACEUTICAL COMPOSITIONS CONTAINING SAME AND PREPARATION METHOD THEREFOR” (priority 1994, dated 1996)

Tested on: VIH-1/LAI
Assay: Inactivation of HIV-1: infectious titre before/after treatment, titrated on MT4 cells (p24 antigen ELISA, day +10)
Type: cell-based
Description: Afin d'évaluer l'efficacité d'AVF1, il a été procédé à la comparaison des titres infectieux de suspensions virales avant et après traitement par trois concentrations de AVF1 pendant trois temps de contact. A partir des résultats expérimentaux, il a été défini pour chaque concentration et chaque temps de contact testés, un facteur de […] du titre infectieux du VIH-1. Ce facteur de réduction exprimé en log 10 correspond au rapport du titre infectieux du virus non traité et du titre infectieux du virus traité par AVF1.
L'étude a été réalisée en deux étapes : • Traitement du VIH-1/LAI par trois concentrations d'AVF1 pendant 5, 30 et 60 minutes. • Evaluation des titres infectieux des échantillons obtenus avant et après traitement par AVF1 sur cellules MT4.
Le virus a été dilué au 1/10ème dans chacune des solutions de AVF1 (solution diluée à 2%, 1%, et 0,5%).
Le virus a été maintenu dans chacune de ces solutions pendant 5 minutes, 30 minutes et 60 minutes, à température ambiante puis immédiatement dilué en tampon NTE. Après dilution en tampn NTE, les échantillons ont été ultracentrifugés afin d'éliminer AVF1 et éviter ainsi sa toxicité sur les cellules MT4 utilisées pour le titrage du virus. Cette étape d'ultracentrifugation permet aussi de concentrer les particules virales résiduelles. Après centrifugation, chaque culot a été repris dans 1 ml de milieu de culture, filtré sur un filtre de 0,45 µm aliquoté et stocké à -80°C.
La même expérience a été réalisée deux fois.
La méthode de titrage du VIH-1 sur cellules MT4 est basée sur la détection d'une production virale par les cellules inoculées maintenues 10 jours en culture, mesurée par le dosage de l'antigène p24 VIH-1 dans le surnageant de culture.
Brièvement, les cellules MT4 sont inoculées avec des dilutions en série de virus non traité (contrôle positif) ou avec les échantillons expérimentaux (virus traités par AVF1).
Le VIH infecte les cellules, se multiplie, puis est libéré dans le surnageant de culture par bourgeonnement à la surface de la cellule. Afin de détecter la présence du virus, les surnageants de culture sont récupérés tous les 3 ou 4 jours et testés au jour +10 après l'infection quant à la présence de l'antigène p24 VIH-1.
La détection de l'antigène p24 VIH-1 est réalisée à l'aide d'une technique ELISA sandwich mettant en oeuvre la trousse ELAVIA AgI commercialisée par Diagnostic Pasteur, qui permet la détection de 50 pg d'antigène p24 par millilitre de surnageant.
Le principe de cette méthode est brièvement le suivant : l'antigène p24 libéré après la lyse des particules virales présentes dans le surnageant est complexé à des anticorps anti-VIH-1 immobilisés dans les puits des microplaques. L'antigène est alors révélé par anticorps polyclonaux anti-VIH-1 biotinylés, reconnus eux-mêmes par un conjugué streptavidine péroxydase. La présence de ce complexe est révélée par une réaction enzymatique après addition du substrat (H2O2) et du chromogène (OPD). Le produit de cette réaction est coloré et peut donc être détecté par mesure de la densité optique à 492 nm. La quantité de produit formé au cours de la réaction enzymatique est directement proportionnelle à la quantité d'antigène présente dans l'échantillon testé.
Les échantillons à tester ont été dilués ou non dans du milieu de culture. 1 ml d'échantillon non dilué, et 0,4 ml des dilutions suivantes ont été inoculés sur un culot de 1,2 10^6 cellules MT4. Après l'adsoption virale pendant 1 heure à 37°C, l'innoculum viral a été éliminé et les cellules lavées 3 fois en milieu de culture. Les cellules ont alors été resuspendues dans 4 ml de milieu de culture, distribuées dans 4 puits de plaque 24 puits et incubées à 37°C en présence de 5% de CO2.
Tous les 3 ou 4 jours, les surnageants de culture contenus dans chaque puits ont été prélevés et stockés à -80°C puis testés quant à la présence d'antigène p24 VIH-1.
Le titre infectieux est exprimé en "tissue Culture Infectious Dose 50" par millilitre d'échantillon (TCID 50/ml). […]

[1] = AVF1 0,5%, 5 minutes, 1ère expérience
[2] = AVF1 0,5%, 5 minutes, 2ème expérience
[3] = AVF1 0,5%, 30 minutes, 1ère expérience
[4] = AVF1 0,5%, 30 minutes, 2ème expérience
[5] = AVF1 0,5%, 60 minutes, 1ère expérience
[6] = AVF1 0,5%, 60 minutes, 2ème expérience
[7] = AVF1 1%, 5 minutes, 1ère expérience
[8] = AVF1 1%, 5 minutes, 2ème expérience
[9] = AVF1 1%, 30 minutes, 1ère expérience
[10] = AVF1 1%, 30 minutes, 2ème expérience
[11] = AVF1 1%, 60 minutes, 1ère expérience
[12] = AVF1 1%, 60 minutes, 2ème expérience
[13] = AVF1 2%, 5 minutes, 1ère expérience
[14] = AVF1 2%, 5 minutes, 2ème expérience
[15] = AVF1 2%, 30 minutes, 1ère expérience
[16] = AVF1 2%, 30 minutes, 2ème expérience
[17] = AVF1 2%, 60 minutes, 1ère expérience
[18] = AVF1 2%, 60 minutes, 2ème expérience

CC(C)(C)c1cc(C(=O)OCCOCCOCCOCCOCCOCCOCCOCCO)cc(C(C)(C)C)c1O [AVF1, 3,5-di-t-butyl-4-hydroxybenzoate d'octaoxyéthylèneglycol] was tested, and the “Facteur de réduction Log TCID50/ml” value [1] was > 6,9 Log TCID50/ml, the “Titre TCID 50/ml” value [1] was < 4 TCID 50/ml and the “Facteur de réduction Log TCID50/ml” value [2] was > 6,9 Log TCID50/ml. For the same molecule, the “Titre TCID 50/ml” value [2] was < 4 TCID 50/ml, the “Facteur de réduction Log TCID50/ml” value [3] was > 6,9 Log TCID50/ml and the “Titre TCID 50/ml” value [3] was < 4 TCID 50/ml. The “Facteur de réduction Log TCID50/ml” value [4] was > 6,9 Log TCID50/ml, the “Titre TCID 50/ml” value [4] was < 4 TCID 50/ml and the “Facteur de réduction Log TCID50/ml” value [5] was > 6,9 Log TCID50/ml. For the same molecule, the “Titre TCID 50/ml” value [5] was < 4 TCID 50/ml, the “Facteur de réduction Log TCID50/ml” value [6] was > 6,9 Log TCID50/ml and the “Titre TCID 50/ml” value [6] was < 4 TCID 50/ml. The “Facteur de réduction Log TCID50/ml” value [7] was > 6,9 Log TCID50/ml, the “Titre TCID 50/ml” value [7] was < 4 TCID 50/ml and the “Facteur de réduction Log TCID50/ml” value [8] was > 6,9 Log TCID50/ml. For the same molecule, the “Titre TCID 50/ml” value [8] was < 4 TCID 50/ml, the “Facteur de réduction Log TCID50/ml” value [9] was > 6,9 Log TCID50/ml and the “Titre TCID 50/ml” value [9] was < 4 TCID 50/ml. The “Facteur de réduction Log TCID50/ml” value [10] was > 6,9 Log TCID50/ml, the “Titre TCID 50/ml” value [10] was < 4 TCID 50/ml and the “Facteur de réduction Log TCID50/ml” value [11] was > 6,9 Log TCID50/ml. For the same molecule, the “Titre TCID 50/ml” value [11] was < 4 TCID 50/ml, the “Facteur de réduction Log TCID50/ml” value [12] was > 6,9 Log TCID50/ml and the “Titre TCID 50/ml” value [12] was < 4 TCID 50/ml. The “Facteur de réduction Log TCID50/ml” value [13] was > 6,9 Log TCID50/ml, the “Titre TCID 50/ml” value [13] was < 4 TCID 50/ml and the “Facteur de réduction Log TCID50/ml” value [14] was > 6,9 Log TCID50/ml. The “Titre TCID 50/ml” value [14] was < 4 TCID 50/ml, the “Facteur de réduction Log TCID50/ml” value [15] was > 6,9 Log TCID50/ml and the “Titre TCID 50/ml” value [15] was < 4 TCID 50/ml. For the same molecule, the “Facteur de réduction Log TCID50/ml” value [16] was > 6,9 Log TCID50/ml, the “Titre TCID 50/ml” value [16] was < 4 TCID 50/ml and the “Facteur de réduction Log TCID50/ml” value [17] was > 6,9 Log TCID50/ml. For the same molecule, the “Titre TCID 50/ml” value [17] was < 4 TCID 50/ml, the “Facteur de réduction Log TCID50/ml” value [18] was > 6,9 Log TCID50/ml and the “Titre TCID 50/ml” value [18] was < 4 TCID 50/ml. The “réduction du pouvoir infectieux” value (solution à 0,5% de AVF1, 5 minutes) was ≥ 6,9 log TCID50/ml and the “particules infectieuses VIH-1 détectées” value (whatever the concentration (2%, 1%, 0,5%) and contact time (5, 30, 60 minutes)) was “Aucune particule infectieuse VIH-1 n'a été détectée”.
